# Structures can show the parent of a compound that is named as a salt.
# Columns and labels:
# [1] = system: Alkaline phosphatase; assay: Peak light intensity of dephosphorylated dioxetanes; format: biochemical; conditions: for PEAK INTENSITY: 0.004 mM dioxetane, 30° C., 0.1M diethanolamine, 1 mM MgCl2, pH 10, alkaline phosphatase 1.05×10^-9 M
# Description: Determination of the Peak Light Intensity of Dephosphorylated Dioxetanes
# A 0.5 mL aliquot of dioxetane (0.004 mM) was equilibrated to 30° C. in 0.1M diethanolamine, 1 mM MgCl2, pH 10. Alkaline phosphatase (final concentration of 1.05×10^-9 M) was added to the tube and the chemiluminescent signal was measured in a Turner TD-20E luminometer for 10 to 20 minutes.
# [2] = system: biotinylated pBR322(35 mer); assay: Detection of biotinylated pBR322 (35 mer) on nylon membrane; conditions: for DNA CONC. (detection sensitivity): 5 minute exposure, 0.25 mM dioxetane, nylon membrane, pH 9.5 for CSPD and TFE, pH 9.0 for CDP-Star and TFE-ADP-Star
# From the text: Detection of Biotinylated pBR322(35 mer) on Nylon Membrane
# Serial dilutions of biotinylated pBR322 (35 mer) were spotted onto strips of Tropilon-Plus nylon membrane. Spots correspond to 210 pg, 70 pg, 23.3 pg, 7.7 pg, 2.6 pg, 0.86 pg, 0.29 pg, 0.10 pg, 32.0 fg, 10.7 fg, 3.6 fg and 1.2 fg of biotinylated pBR322(35 mer). After spotting, the DNA was cross-linked to the membrane by UV fixation, the membranes were blocked with 0.2% I-Block, 5% sodium dodecyl sulfate (SDS) in phosphate buffered saline(PBS) (Blocking Buffer I), incubated with a 1-5000 dilution of Avidx-AP in Blocking Buffer I for 30 minutes, washed twice with 5% SDS in PBS for 5 minutes, rinsed twice with Assay Buffer, incubated for 5 minutes in 0.25 mM dioxetane phosphate in Assay Buffer and exposed to X-ray film for 5 minutes. The membrane strips incubated with CSPD, and TFE were rinsed with 0.1M diethanolamine, 1 mM MgCl2, pH 9.5 and those incubated with CDP-Star, and TFE-ADP-Star were rinsed with the same buffer at pH 9.0. The Assay Buffer for CSPD and TFE was 0.1M diethanolamine, 1 mM MgCl2, pH 9.5 and for CD-Star, and TFE-ADP-Star was the same buffer at pH 9.0.
# [3] = system: Alkaline phosphatase; assay: Chemiluminescence half-life of dephosphorylated dioxetane; format: biochemical; conditions: for T1/2 (chemiluminescence half-life): 0.004 mM dioxetane, 30° C., 0.1M diethanolamine, 1 mM MgCl2, pH 10, alkaline phosphatase 1.05×10^-9 M, no enhancer; for T1/2 (chemiluminescence half-life), with Sapphire II enhancer: Sapphire II enhancer: 0.1M diethanolamine, 1 mM MgCl2, 10% polyvinylbenzyltributyl ammonium chloride at 1 mg/mL; for t1/2 (chemiluminescence half-life): in a buffer solution
# Description: Determination of the Chemiluminescence Half-Life of Dephosphorylated Dioxetane.
# A 1 mL aliquot of each dioxetane (0.004 mM) was equilibrated to 30° C. in 0.1M diethanolamine, 1 mM MgCl2, pH 10. Alkaline phosphatase (at final concentration of 1.05×10^-9 M) was added to the test tube and the chemiluminescent signal kinetics was measured in a Turner TD-20E luminometer for 10 to 20 minutes. The half-life was calculated from the plot of log RLU versus time. For TFE and TFE-ADP-Star, the chemiluminescent half-life was also determined in the presence of Sapphire II enhancer (in 0.1M diethanolamine, 1 mM MgCl2, 10% polyvinylbenzyltributyl ammonium chloride at 1 mg/mL).
# [4] = system: Alkaline phosphatase; assay: Enzymatic triggering of the prepared dioxetane with alkaline phosphatase to produce light; format: biochemical
# Description: 480 milligrams of chromatographed disodium 2-chloro-5-(2,2,2-trifluoroethoxy tricyclo[3.3.1.1^3,7 ]dec-2-ylidenemethyl)phenyl phosphate was placed in a tube and wet down with anhydrous methanol, 4 mL. Chloroform, 40 mL, was added to obtain a solution. A solution of tetraphenylporphine (TPP), 6 milligrams in 3 mL chloroform, was then added to yield a pink-purple reaction mixture. The solution was cooled in an ice bath while sparging with oxygen through a Pasteur pipette for 5 minutes. The gas flow was continued while the solution was irradiated with a 400 watt sodium vapor lamp which had been filtered with a 3.0 mil thickness of DuPont Kapton film. After 40 minutes, a small sample was blown down and dissolved in water which contained 0.1% NaHCO3. Analytical HPLC, under conditions described above for the starting material, indicated a new product which eluted at 12.1 minutes. The starting material, eluting at 12.5 minutes, was present in just a trace amount. The reaction was stripped of solvents and pumped to yield a dark red foam. This was dissolved in 80 mL water which contained 5 drops of 0.5M NaOH. The solution was filtered to remove insolubles, and was preparatively chromatographed on a one inch PLRP-S column (Polymer Laboratories) using an acetonitrile/water gradient. The product peak was shaved on the front and in the back, collecting only the middle cut. […]
# [5] = nylon membrane blotting, TABLE III
SMILES,PEAK INTENSITY [1] [RLU],DNA CONC. (detection sensitivity) [2] [PICOGRAMS],T1/2 (chemiluminescence half-life) [3] [min],also measured
COC1(c2cccc(OP(=O)(O)O)c2)OOC12C1CC3CC2CC(Cl)(C3)C1 (stereo not shown) [CSPD],200,23.3,0.6,half-life compared with TFE ([3]; by itself in a buffer): shorter than TFE
O=P(O)(O)Oc1cccc(C2(OCC(F)(F)F)OOC23C2CC4CC(C2)CC3C4)c1 (stereo not shown) [TFE],282,7.7,0.9,"T1/2 (chemiluminescence half-life), with Sapphire II enhancer [3]: 15.5 min; t1/2 (chemiluminescence half-life) [3]: 0.9 min; t1/2 in the presence of enhancers ([3]; in the presence of enhancers): 15 min"
"O=P(O)(O)Oc1cc(C2(OCC(F)(F)F)OOC23C2CC4CC(C2)CC3C4)ccc1Cl (stereo not shown) [TFE-ADP-Star, Disodium 2-chloro-5-(4-(2,2,2-trifluoroethoxy)spiro{1,2-dioxetane-3,2'-tricyclo[3.3.1.1^3,7]decan}-4-yl-phenyl phosphate]",390,0.0107,2.0,"chemiluminescent signal intensity / relative emission efficiency ([1]; comment on TABLE II): generates a higher intensity signal; light production on enzymatic triggering with alkaline phosphatase [4]: produce light; amount of DNA detected relative to TFE [2, 5]: close to one thousand times less DNA than TFE; sensitivity compared with CDP-Star [2, 5]: more sensitive than CDP-Star; T1/2 (chemiluminescence half-life), with Sapphire II enhancer [3]: 5.0 min"
COC1(c2ccc(Cl)c(OP(=O)(O)O)c2)OOC12C1CC3CC2CC(Cl)(C3)C1 (stereo not shown) [CDP-Star],863,0.86,1.2,
COC1(c2ccc(Cl)c(OP(=O)(O)O)c2)OOC12C1CC3CC(C1)CC2C3 (stereo not shown) [ADP-Star],682,,2.7,
"O=P([O-])([O-])Oc1cccc(C2(OCC(F)(F)F)OOC23C2CC4CC3CC(Cl)(C4)C2)c1.[Na+].[Na+] (stereo not shown) [TFE-CDP-Star, Disodium 3-(4-(2,2,2-trifluoroethoxy)spiro{1,2-dioxetane-3,2'-(5'-chloro)tricyclo [3.3.1,1^3,7]decan}-4-yl)phenyl phosphate]",,,,"duration of burst of light on addition of excess alkaline phosphatase ([4]; HPLC peak of basified reaction sample, pH 10 aqueous diethanolamine buffer, excess alkaline phosphatase): 3 min"
"COC1(c2cccc(OP(=O)(O)O)c2)OOC12C1CC3CC(C1)CC2C3 (stereo not shown) [AMPPD, 3-(2'-spiroadamantane)-4-methoxy-4-(3""-phosphoryloxy)-phenyl-1,2-dioxetanedisodium salt]",,,,t1/2 (chemiluminescence half-life) [3]: 2.1 min
